The values that follow come from patent publication US20080193398A1, “Derivatives of Heptaazaphenalene, Methods for Obtaining Them, and Their Use as Protecting Agents Against Uv Radiation” (ISDIN, S.A., priority 2005, published 2008).

Series [1] in a line: UV absorption (UV λmax and εmax) in solution. Type of series: physicochemical. The source says:
There follow some examples where the UV λmax and εmax have been measured according to general methods known for the person skilled in the art by way of non-restrictive illustration of the present invention.

As usually defined, the melting point is the temperature, or range, at which the solid turns liquid.

For the compound `COC(=O)c1ccc(NC2=NC3=NC(Nc4ccc(C(=O)OC)cc4)=NC4=NC(Nc5ccc(C(=O)OC)cc5)=NC(=N2)N34)cc1` [Example 24, 2,5,8-tris-(4-(methoxycarbonyl)phenylamino)-1,3,4,6,7,9,9b-heptaazaphenalene], the melting point lay within 288 to 291 °C. Moreover, in series [1] (DMSO), the “UV λmax” value is 329 nm and the εmax was 116000 M⁻¹ cm⁻¹.

For `C(=C\c1ccc(NC2=NC3=NC(Nc4ccc(/C=C/c5ccccc5)cc4)=NC4=NC(Nc5ccc(/C=C/c6ccccc6)cc5)=NC(=N2)N34)cc1)/c1ccccc1` [Example 28, 2,5,8-tris-((4-(E)-styrylphenyl)amino)-1,3,4,6,7,9,9b-heptaazaphenalene], the melting point is above 270 °C. Besides, in series [1] (DMSO), the “UV λmax” value turned out to be 367 nm and the εmax came to 163000 M⁻¹ cm⁻¹.

For `CC(C)[C@@H]1CC[C@@H](C)C[C@H]1OC(=O)c1ccc(NC2=NC3=NC(Nc4ccc(C(=O)O[C@@H]5C[C@H](C)CC[C@H]5C(C)C)cc4)=NC4=NC(Nc5ccc(C(=O)O[C@@H]6C[C@H](C)CC[C@H]6C(C)C)cc5)=NC(=N2)N34)cc1` [Example 30, 2,5,8-tris-(4-(L-menthylcarbonyl)phenylamino)-1,3,4,6,7,9,9b-heptaazaphenalene], the melting point is 202 to 206 °C. In addition, in series [1] (DMSO), the “UV λmax” value was determined as 326 nm and the εmax is 118000 M⁻¹ cm⁻¹.

In turn, `CC1CC(OC(=O)c2ccc(NC3=NC4=NC(Nc5ccc(C(=O)OC6CC(C)CC(C)(C)C6)cc5)=NC5=NC(Nc6ccc(C(=O)OC7CC(C)CC(C)(C)C7)cc6)=NC(=N3)N45)cc2)CC(C)(C)C1` (stereo not drawn) [Example 31, 2,5,8-tris-(4-((3,3,5-trimethylcyclohexyloxy)carbonyl)phenylamino)-1,3,4,6,7,9,9b-heptaazaphenalene] displayed a melting point above 275 °C. Besides, in series [1] (DMSO), the “UV λmax” value is on record as 329 nm and the εmax is 143000 M⁻¹ cm⁻¹.

In turn, `CCCCC(CC)COC(=O)/C=C/c1ccc(NC2=NC3=NC(Nc4ccc(/C=C/C(=O)OCC(CC)CCCC)cc4)=NC4=NC(Nc5ccc(/C=C/C(=O)OCC(CC)CCCC)cc5)=NC(=N2)N34)cc1` (stereo not drawn) [Example 32, 2,5,8-tris-(4-((E)-3-(2-ethylhexyloxy)-3-oxoprop-1-enyl)phenylamino)-1,3,4,6,7,9,9b-heptaazaphenalene] came in with a melting point of 213 to 216 °C. In series [1] (DMSO), the “UV λmax” value is 358 nm and the εmax worked out at 154000 M⁻¹ cm⁻¹.

Consider `CCCCC(CC)COC(=O)/C=C/c1cccc(NC2=NC3=NC(Nc4cccc(/C=C/C(=O)OCC(CC)CCCC)c4)=NC4=NC(Nc5cccc(/C=C/C(=O)OCC(CC)CCCC)c5)=NC(=N2)N34)c1` (stereo not drawn) [Example 33, 2,5,8-tris-(3-((E)-3-(2-ethylhexyloxy)-3-oxoprop-1-enyl)phenylamino)-1,3,4,6,7,9,9b-heptaazafenaleno], for which the melting point lay within 206 to 210 °C. In addition, in series [1] (DMSO), the “UV λmax” value turned out to be 290 nm and the εmax is 126000 M⁻¹ cm⁻¹.

In turn, `CCCCCCC(CCCC)COC(=O)c1ccc(NC2=NC3=NC(Nc4ccc(C(=O)OCC(CCCC)CCCCCC)cc4)=NC4=NC(Nc5ccc(C(=O)OCC(CCCC)CCCCCC)cc5)=NC(=N2)N34)cc1` (stereo not drawn) [Example 36, 2,5,8-tris-(4-(2-butyloctyloxycarbonyl)phenylamino)-1,3,4,6,7,9,9b-heptaazaphenalene] yielded a melting point of 215 to 222 °C. Besides, in series [1] (CHCl3), the “UV λmax” value is listed as 326 nm and the εmax turned out to be 119000 M⁻¹ cm⁻¹.

Regarding `CCCCCCCCCCCCCCCCOC(=O)c1ccc(NC2=NC3=NC(Nc4ccc(C(=O)OCCCCCCCCCCCCCCCC)cc4)=NC4=NC(Nc5ccc(C(=O)OCCCCCCCCCCCCCCCC)cc5)=NC(=N2)N34)cc1` [Example 42, 2,5,8-tris-(4-(hexadecyloxycarbonyl)phenylamino)-1,3,4,6,7,9,9b-heptaazaphenalene], the melting point lay within 252 to 255 °C. In series [1] (DMSO), the “UV λmax” value worked out at 324 nm and the εmax was found to be 125000 M⁻¹ cm⁻¹.
